Source: PubChem BioAssay (NCI)
“And” between values parts separate entries of the source, which are not always exact repeats. Identical values can stand only once.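 Protocol summary: plate cells (96-well), add compound at 5 concentrations, incubate 48 h, interpolate endpoints linearly. GI50 is the concentration that inhibits growth by half. TGI marks complete inhibition of growth.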 *1 amine or outer side, *2 acyl side, *3 side chain or, on linkers, in order; H or OH if unused. Where a SMILES comes first, the peptide text is derived from it. Bridges are numbered along the chain shown (N, C = ends). Roman numbers before positions name the chains, in order. [ ]: non-standard residue; d: D form. Actinocin(9to1) = Cc1c2oc3c(C)ccc(C(=O)[*:1])c3nc-2c(C(=O)[*:2])c(N)c1=O; NMeV = CN[CH](C(=O)O)C(C)C; Sar = CNCC(=O)O

What was measured:
Test in all cases: DTP human tumour cell line panel, 48 h
KM20L2 colon = system: KM20L2 colon
SF-295 CNS = system: SF-295 CNS
EKVX NSCLC = system: EKVX NSCLC
SNB-19 CNS = system: SNB-19 CNS
SK-MEL-2 melanoma = system: SK-MEL-2 melanoma
MOLT-4 leukemia = system: MOLT-4 leukemia
ACHN renal = system: ACHN renal
K-562 leukemia = system: K-562 leukemia
HT29 colon = system: HT29 colon
HCT-15 colon = system: HCT-15 colon

Structure (SMILES)	TGI (KM20L2 colon)	TGI (SF-295 CNS)	TGI (EKVX NSCLC)	TGI (SNB-19 CNS)	TGI (SK-MEL-2 melanoma)	TGI (MOLT-4 leukemia)	TGI (ACHN renal)	TGI (K-562 leukemia)	TGI (HT29 colon)	TGI (HCT-15 colon)	GI50 (KM20L2 colon)	GI50 (SF-295 CNS)	GI50 (SNB-19 CNS)	GI50 (SK-MEL-2 melanoma)	GI50 (MOLT-4 leukemia)	GI50 (K-562 leukemia)	GI50 (HT29 colon)	GI50 (HCT-15 colon)	GI50 (EKVX NSCLC)
CCSC1=C(C)N(C=NC(C)(C)C)CC1	> 100 µM	> 100 µM	> 100 µM	> 100 µM	> 100 µM	> 100 µM	> 100 µM	> 100 µM	> 100 µM	> 100 µM									
CCOC(=O)C(=Cc1ccc(C(=O)OC)cc1)C(=O)OCC	14.1 µM	19.2 µM	26.9 µM	6.47 µM	3.37 µM	7.74 µM	3.48 µM	> 100 µM	18.1 µM	6.76 µM									
CC(=O)O[C@]12CCCC1C1(O)C(O)CCCC12 (some centres undefined)	> 100 µM	> 100 µM	> 100 µM	> 100 µM	> 100 µM	> 100 µM	> 100 µM	> 100 µM	> 100 µM	> 100 µM									
O=[Se](=O)c1ccccc1.O=[Se](=O)c1ccccc1.[Cu]	35.1 µM	29.8 µM		31.3 µM	33.5 µM	65.8 µM		47.4 µM	39.2 µM	34.1 µM	18.3 µM	16 µM	17.4 µM	18.8 µM	12 µM	13.4 µM	17.2 µM	16.4 µM	
C/C(=N\NC(N)=S)C(CN(CC(C)C)CC(C)C)C(=O)Nc1ccc(C)cc1C (centres undefined)	> 100 µM	> 100 µM	> 100 µM	> 100 µM	> 100 µM	> 100 µM	> 100 µM	> 100 µM	> 100 µM	> 100 µM									
c1ccc2c(c1)nc(NC1CCCC1)c1[nH]c(C3CCCC3)nc12	20.8 µM	32.8 µM	> 100 µM	> 100 µM	19.1 µM	> 41.7 µM	> 75.6 µM	41.4 µM	20.1 µM	28.3 µM									
Cc1cccc(C2=NC(C)(C)C(C)(C)N=C2c2cccc(C)n2)n1	> 100 µM	> 100 µM	> 100 µM	> 100 µM	> 100 µM		> 100 µM	> 100 µM	> 100 µM	> 100 µM									
O=C1Nc2cc([N+](=O)[O-])ccc2NC1/C(=N\Nc1ccccc1)C(O)c1cccc([N+](=O)[O-])c1 (centres undefined)	> 100 µM	> 100 µM	> 100 µM	> 100 µM	> 100 µM	> 100 µM	> 100 µM	> 100 µM	> 100 µM	44.7 µM									
O=C(c1ccccc1)c1ccc2nc(-c3c(Cl)c(Cl)c(Cl)c(Cl)c3C(=O)N/N=C/c3ccccc3)[nH]c2c1		88.7 µM	60.2 µM	> 100 µM	67.5 µM	54.1 µM	49.2 µM	> 100 µM	> 100 µM	> 100 µM									
NC(=O)C#CC(N)=O		26.2 µM and > 31.6 µM	29.7 µM and 35 µM and > 100 µM	241 µM and > 100 µM	30.2 µM and 26.4 µM and 42.8 µM	18.6 µM and 37.5 µM	> 100 µM	15.1 µM and 96.6 µM and 24.3 µM	131 µM and 35.4 µM and > 100 µM	76.2 µM and 100 µM and > 100 µM					3.31 µM and 14.2 µM		31.2 µM and 17 µM	20 µM and 26.2 µM and > 100 µM	16.1 µM and 18.1 µM and > 100 µM
C=C(CC[C@@H](C(=O)O)[C@H]1[C@H](O)C[C@@]2(C)C3=CC[C@@H](C(=C)C)[C@](C)(CCC(=O)O)C3=CC[C@]12C)C(C)C		31.4 µM	32.3 µM	32.9 µM	34.3 µM	64.4 µM	31.4 µM	> 100 µM	32.8 µM	31.4 µM									
Cc1nc2ccc(S(=O)(=O)O)cc2c(=O)n1-c1ccc(C(=O)NN2C(=O)C(Cl)C2c2ccccc2O)cc1 (centres undefined)		> 100 µM	> 100 µM	> 100 µM	> 100 µM	> 100 µM	> 100 µM	> 100 µM	> 100 µM	> 100 µM									
N#Cc1c(N2CCCC2)ncn(Cc2ccccc2)c1=O		> 100 µM	> 100 µM	> 100 µM	> 100 µM	> 100 µM	> 100 µM	> 100 µM	> 100 µM	> 100 µM									
CC(C)c1ccc(/C=C2\CSCC3=C2NC(=S)NC3c2ccc(C(C)C)cc2)cc1 (centres undefined)		> 100 µM	> 100 µM	> 100 µM	> 100 µM	> 100 µM	> 100 µM	> 100 µM	> 100 µM	> 100 µM									
COc1ccc(N=N/C(=N/NC(=O)c2ccccc2)c2ccc(N(CCC#N)CCC#N)cc2C)cc1		> 100 µM	> 100 µM	> 100 µM	> 100 µM	> 100 µM	> 100 µM	> 100 µM	55 µM	> 100 µM									
CCOc1nc(-c2ccccc2)cc(-c2ccc(N3CCOCC3)cc2)c1C#N		> 100 µM	> 100 µM	> 100 µM	> 100 µM	> 100 µM	> 100 µM	> 100 µM	> 100 µM	> 100 µM									
CCCCc1ccc(Nc2ncc3[nH]cnc3n2)cc1		38 µM	98.1 µM	44.4 µM	53.3 µM	> 100 µM	31.7 µM	> 100 µM	44.8 µM	38.5 µM									
O=C1COc2ccc([N+](=O)[O-])cc2C(=O)C1		> 10 µM	> 10 µM	> 10 µM	> 10 µM	> 10 µM	> 10 µM	> 10 µM	> 10 µM	> 10 µM									

Structure (SMILES)	TGI (KM20L2 colon)	TGI (SF-295 CNS)	TGI (EKVX NSCLC)	TGI (SNB-19 CNS)	TGI (SK-MEL-2 melanoma)	TGI (MOLT-4 leukemia)	TGI (ACHN renal)	TGI (K-562 leukemia)	TGI (HT29 colon)	TGI (HCT-15 colon)	GI50 (KM20L2 colon)	GI50 (SF-295 CNS)	GI50 (SNB-19 CNS)	GI50 (SK-MEL-2 melanoma)	GI50 (MOLT-4 leukemia)	GI50 (K-562 leukemia)	GI50 (HT29 colon)	GI50 (HCT-15 colon)	GI50 (EKVX NSCLC)
O=C(OCc1ccccc1)C1(N2CN(C3(C(=O)OCc4ccccc4)CCCC3)CN(C3(C(=O)OCc4ccccc4)CCCC3)C2)CCCC1		> 10 µM	> 10 µM	> 10 µM	> 10 µM	> 10 µM	> 10 µM	> 10 µM	> 10 µM	> 10 µM									
CCOC(=O)/C=C(/C(=O)OCC)n1cc(C)c(=O)n(Cc2cn(COCCOC(C)=O)nn2)c1=O		> 100 µM	31.3 µM	> 92.5 µM	> 100 µM	> 61.2 µM	21.6 µM	63.2 µM	30.7 µM	> 61.9 µM									
COc1cc(CC2c3cc(OC)c(OC)cc3CCN2C)c(Oc2cc3c(cc2OC)-c2c(O)c(OC)cc4c2C(C3)N(C)CC4)cc1OC (centres undefined)		35.4 µM	53.1 µM	57.4 µM	58.5 µM	> 100 µM	49.8 µM	> 100 µM	36.6 µM	33.1 µM									
Cc1[nH]c2ccccc2c1C=Nc1ccc(N=Cc2c(C)[nH]c3ccccc23)cc1		> 100 µM	> 100 µM	> 100 µM	57.2 µM	43.1 µM	> 100 µM	47 µM	> 100 µM	> 100 µM									
Cc1cc(S(=O)(=O)O)c(NC(=O)C(=O)C2C=CCS2(=O)=O)cc1Cl (centres undefined)	> 100 µM	> 100 µM	> 100 µM	> 100 µM	> 100 µM	> 100 µM	> 100 µM	> 100 µM	> 100 µM	> 100 µM									
O=C1NC2(CCCCC2)C2CCCCCC12 (centres undefined)	> 100 µM	> 100 µM	> 100 µM	> 100 µM		> 100 µM	> 100 µM	> 100 µM	> 100 µM	> 100 µM									
O=C1c2c(nc3ccccc3c2-c2ccccc2)CN1Nc1ccccn1		> 100 µM	> 100 µM	> 100 µM	> 100 µM	> 100 µM	> 100 µM	> 100 µM	> 100 µM	> 100 µM									
C=C1C(=O)OCC2C(C(=O)O)=CC3C(C)C(C)=CC123 (centres undefined)	51.1 µM	49.1 µM	62.6 µM	40.2 µM	15.1 µM	29.6 µM		72.4 µM	44.4 µM	43.8 µM									
Cc1cccc(NC(=O)C(=O)C(C(=O)c2ccccc2F)C2OC(=O)c3ccccc32)c1Cl (centres undefined)	88.5 µM	> 100 µM	> 100 µM	> 100 µM	> 100 µM	> 100 µM	> 100 µM	> 100 µM	> 100 µM	73.3 µM									
C(=C\c1ccccc1)/C=N/c1nc2cc3sc(/N=C/C=C/c4ccccc4)nc3cc2s1		> 100 µM	> 100 µM	> 100 µM	> 100 µM	> 76.1 µM	> 100 µM	> 100 µM	> 100 µM	> 100 µM									
COc1ccc(-c2c(N)n(-c3cccc(C(=O)O)c3)c(=O)c3cc([N+](=O)[O-])ccc23)cc1		> 100 µM	> 100 µM	> 100 µM	> 100 µM	> 100 µM	> 100 µM	> 100 µM	> 100 µM	> 100 µM									
[N-]=[N+]=NCc1cccc(Nc2cc(=O)[nH]c(=O)[nH]2)c1		> 100 µM	> 100 µM	> 100 µM	> 100 µM	> 100 µM	> 100 µM	> 100 µM	> 100 µM	> 100 µM									
C=C(C)C(=O)[C@@]12C(=O)[C@@H](C)CC[C@H]1[C@H](C)C[C@@H]2C=C(C)C		> 100 µM	93.1 µM	32.5 µM	26.7 µM	65.7 µM	25.6 µM	> 100 µM	34.8 µM	73.5 µM									
COc1cccc(/C=N/[N-]C(N)=O)c1[O-].[Ni+2].[OH3+].c1cnc2c(c1)ccc1cccnc12	> 100 µM	> 100 µM		> 100 µM	> 100 µM	> 100 µM	> 100 µM	> 100 µM	> 100 µM	> 100 µM									
COc1cccc(N(CN2CC=CC2=O)C(C)=O)c1		> 100 µM	> 100 µM	> 100 µM	> 100 µM	> 100 µM	> 100 µM	> 100 µM	> 100 µM	> 100 µM									
CN(C)Cc1cc(O)c(O)c(CN(C)C)c1		> 100 µM	71.5 µM	> 100 µM	> 100 µM	> 100 µM	> 100 µM	> 100 µM	> 100 µM	> 100 µM									
Cc1c2oc3c(C)ccc(C(=O)NC4C(=O)NC(C(C)O)C(=O)N5CCCC5C(=O)N(C)CC(=O)N(C)C(C(C)C)C(=O)OC4C)c3nc-2c(C(=O)NC2C(=O)NC(C(C)O)C(=O)N3CCCC3C(=O)N(C)CC(=O)N(C)C(C(C)C)C(=O)OC2C)c(N)c1=O (centres undefined) (I: TTP[Sar][NMeV] / II: TTP[Sar][NMeV]; ester I:1-I:C, II:1-II:C; linker I:N-II:N via Actinocin(9to1); configuration not given here)		> 100 µM	> 42.2 µM	> 100 µM	1.03 µM	0.598 µM	10.9 µM	3.43 µM	4.19 µM	> 100 µM									
